# According to patent publication US10919843B2, “Cannabidiol derivatives as inhibitors of the HIF prolyl hydroxylases activity” (priority 2017, dated 2021):
# Legend:
# [1] = test system: HIF-1α; assay: HIF-1α transactivation assay in HaCaT-EPO-luc cells; type: cell-based; conditions: for Efficacy HIF-1α (IRA coefficient): relative to 150 μM DFX; for EC50: read-out: Potency EC50 HIF-1α
# Description: (§1) To investigate the biological activities of the different compounds, HIF-1α transactivation assays were performed either in NIH-3T3-EPO-Luc cells (Table 1) or in HaCaT-EPO-luc cells (Table 2). The NIH3T3-EPO-luc and HaCaT-EPO-luc cells have been stably transfected with the plasmid Epo-Luc plasmid. The EPO-Hypoxia Response Element (HRE)-luciferase reporter plasmid contains three copies of the HRE consensus sequence from the promoter of the erythropoietin gene fused to the luciferase gene.
# (§2) HaCaT-EPO-Luc cells were maintained at 37° C. in a humidified atmosphere containing 5% CO2 in DMEM supplemented with 10% fetal calf serum (FBS), and 1% (v/v) penicillin/streptomycin. The cells (1×10^5/well in 24-well plates) were seeded the day before the assay and then stimulated with increasing concentrations of either Cannabidiol (CBD), VCE-004 or compounds II to X. After six hours of stimulation the cells were lysed in 25 mM Tris-phosphate pH 7.8, 8 mM MgCi2, 1 mM DTT, 1% Triton X-100, and 7% glycerol during 15 min at RT in a horizontal shake. Luciferase activity was measured in the cell lysates as indicated for NIH3T3-EPO-Luc cells. The RLUs are calculated and the EC50 and IRA (Intrinsic relative activity) values in both cell lines were determined relative to 150 μM deferoxamine (DFX) using the following equation: IRA coefficient=(EC50-DFX×Emax)/(EC50×Emax-DFX), where EC50 and Emax denote EC50 and Emax of the agonist, and EC50-DFX and Emax-DFX denote EC50 and Emax values of the standard agonist DFX (Table 1 and 2).
# [2] = test system: HIF-1α; assay: HIF-1α transactivation assay in NIH-3T3-EPO-Luc cells; type: cell-based; conditions: for Efficacy HIF-1α (IRA coefficient): relative to 150 μM DFX; for EC50: read-out: Potency EC50 HIF-1α
# Description: as §1
# NIH3T3-EPO-luc cells were maintained at 37° C. in a humidified atmosphere containing 5% CO2 in DMEM supplemented with 10% fetal calf serum (FBS), and 1% (v/v) penicillin/streptomycin. Deferoxamine (DFX) was purchased from Sigma-Aldrich (USA). Cells (1×10^4/well in 96-well plates) were seeded the day before the assay. The next day, the cells were stimulated with increasing concentrations of either Cannabidiol (CBD), VCE-004 or compounds II to X. After six hours of stimulation the cells were lysed in 25 mM Tris-phosphate pH 7.8, 8 mM MgCl2, 1 mM DTT, 1% Triton X-100, and 7% glycerol during 15 min at RT in a horizontal shaker. Luciferase activity was measured using a microplate luminometer (Berthold) following the instructions of the luciferase assay kit (Promega, Madison. Wis., USA).
# as §2
# [3] = HaCaT-EPO-Luc cells, 6 h stimulation
# [4] = NIH-3T3-EPO-Luc cells, 6 h stimulation
Structure (SMILES),"Efficacy HIF-1α (IRA coefficient) [1, 3]","EC50 [1, 3]","Efficacy HIF-1α (IRA coefficient) [2, 4]","EC50 [2, 4]",EC50 ([1]; 6 h),EC50 ([2]; 6 h)
C=C(C)[C@@H]1CCC(C)=C[C@H]1C1=C(O)C(=O)C(CCCCC)=C(NCCC(C)C)C1=O [X],10.35,1200 nM,0.29,3300 nM,–,–
C=C(C)[C@@H]1CCC(C)=C[C@H]1C1=C(O)C(=O)C(CCCCC)=C(NCCC(C)C)C1=O [IX],8.64,–,0.8,–,–,–
C=C(C)[C@@H]1CCC(C)=C[C@H]1C1=C(O)C(=O)C(CCCCC)=C(NC)C1=O [Compound VI],3.02,–,0.61,–,4000 nM,2800 nM
C=C(C)[C@@H]1CCC(C)=C[C@H]1C1=C(O)C(=O)C(CCCCC)=C(NCCCC)C1=O [Compound V],5.01,–,0.85,–,1900 nM,1800 nM
C=C(C)[C@@H]1CCC(C)=C[C@H]1C1=C(O)C(=O)C(CCCCC)=C(NCC)C1=O [II],3.87,–,0.46,–,3200 nM,4300 nM
C=C(C)[C@@H]1CCC(C)=C[C@H]1C1=C(O)C(=O)C(CCCCC)=C(NCCCCC)C1=O [III],5.84,1700 nM,0.28,–,–,3600 nM
C=C(C)[C@@H]1CCC(C)=C[C@H]1C1=C(O)C(=O)C(CCCCC)=C(NC(C)C)C1=O [Compound VII],2.3,–,0.68,–,5500 nM,2900 nM
C=C(C)[C@@H]1CCC(C)=C[C@H]1C1=C(O)C(=O)C(CCCCC)=C(NCc2ccccc2)C1=O [Compound VIII],–,–,–,–,1400 nM,2600 nM
C=C(C)[C@@H]1CCC(C)=C[C@H]1C1=C(O)C(=O)C(CCCCC)=C(NCC(C)C)C1=O [IV],5.64,–,0.61,–,1600 nM,3200 nM
C=C(C)[C@@H]1CCC(C)=C[C@H]1C1=C(O)C(=O)C(CCCCC)=C(NCC(C)(C)C)C1=O [IX],–,–,–,–,1400 nM,2500 nM
